Laboratory results taken from patent publication US20240246937A1 (MERCK SHARP & DOHME LLC, priority 2021, published 2024).

What follows are compounds tested against recombinant IL4I1 (Homo sapiens (Human), UniProt Q96RQ9) (assay: IL4I1 Enzymatic Assay (Amplex Red/HRP coupled fluorescence detection of H2O2)). Details: 240 min; recombinant IL4I1, four-hour pre-incubation with compound.
Sequence of recombinant IL4I1 (Q96RQ9 22-567): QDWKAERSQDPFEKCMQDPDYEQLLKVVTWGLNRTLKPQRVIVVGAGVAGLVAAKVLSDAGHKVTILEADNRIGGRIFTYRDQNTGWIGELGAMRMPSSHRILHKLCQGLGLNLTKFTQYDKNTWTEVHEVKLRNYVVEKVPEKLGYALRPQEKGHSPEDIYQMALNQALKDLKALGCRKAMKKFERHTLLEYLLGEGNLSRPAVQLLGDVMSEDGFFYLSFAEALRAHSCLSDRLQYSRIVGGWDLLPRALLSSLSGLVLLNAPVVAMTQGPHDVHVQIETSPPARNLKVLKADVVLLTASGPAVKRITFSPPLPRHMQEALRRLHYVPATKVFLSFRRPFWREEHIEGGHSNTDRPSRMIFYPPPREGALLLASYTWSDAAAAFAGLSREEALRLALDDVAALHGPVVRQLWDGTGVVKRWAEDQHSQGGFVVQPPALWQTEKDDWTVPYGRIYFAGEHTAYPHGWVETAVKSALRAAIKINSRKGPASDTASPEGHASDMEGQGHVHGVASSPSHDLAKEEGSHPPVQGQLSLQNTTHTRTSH
Type: biochemical
Description: Interleukin 4 inducible protein 1 (IL4I1) is an L-amino oxidase that catalyzes the oxidation of aromatic residues (Phe, Trp and Tyr): L-amino acid+H2O+O2→2-oxo acid+NH3+H2O2. Equal molar of H2O2 and the corresponding alpha-ketoacid are produced when IL4I1 and substrate are added. In this assay, the hydrogen peroxide generated by IL4I1 is then detected through a coupled reaction with Amplex® Red (10-acetyl-3,7-dihydroxyphenoxazine) and horseradish peroxidase (HRP) to produce resorufin product that could be detected in the form of fluorescence signals. The assessment of the inhibitory effect of small molecules (EC50) on IL4I1 is measured by the effectiveness of the compounds to inhibit the production of H2O2.
Using this assay, the potency (EC50) of each compound was determined from a ten-point (1:3 serial dilution) titration curve using the following outlined procedure. To each well of a black flat-bottom Greiner (Cat #781076) 384 well-plate, 25 nL of compound (0.1% DMSO in final assay volume of 25 μL) was dispensed, followed by the addition of 12.5 μL of 1× assay buffer (50 mM Hepes 7.0 and 0.005% Tween20 (Sigma, Cat #P8341; low peroxide grade)) containing 2 nM of recombinant IL4I1 (R&D Systems, Cat #5684-AO-020). Plates were placed in an ambient temperature humidified chamber for a four-hour pre-incubation with compound. Subsequently, each reaction was initiated by the addition of 12.5 μL 1× assay buffer containing 2 mM of each aromatic amino acids (Phe/Tyr/Trp), 0.1 mM Amplex Red and 2 U/mL of HRP. The final reaction in each well of 25 μL consisted of 1 nM of IL4I1, 1 mM of each residues (Phe, Tyr and Trp), 0.05 mM Amplex Red and 1 U/mL of HRP. It should be noted that the concentrations of Amplex Red and HRP used here were in excess such that the conversion of H2O2 to resorufin product occurred instantaneously and was non-rate limiting. Reactions were allowed to proceed for 120 minutes followed by fluorescence readout on a Spectramax with the following set parameters: 544 nm excitation/590 nm emission, 570 nm cutoff (EnVision is an alternative reader). Dose-response curves were generated by plotting percent effect (% product conversion; Y-axis) vs. Log10 compound concentrations (X-axis). EC50 values were calculated using a non-linear regression, four-parameters sigmoidal dose-response model and are shown in Potency Table 1.
Work on `CC1(n2ccn(Cc3ccc(-n4nccn4)nn3)c(=O)c2=O)CC1` [Example 332, 1-((6-(2H-1,2,3-triazol-2-yl)pyridazin-3-yl)methyl)-4-(1-methylcyclopropyl)-1,4-dihydropyrazine-2,3-dione] yielded an EC50 of 76 nM. Compound `N#CC1(n2ccn(Cc3cc(-c4cccnc4)on3)c(=O)c2=O)CC1` [Example 210, 1-(2,3-dioxo-4-((5-(pyridin-3-yl)isoxazol-3-yl)methyl)-3,4-dihydropyrazin-1(2H)-yl)cyclopropane-1-carbonitrile] has an EC50 of 92 nM. `O=c1c(=O)n(C23CC(C2)C3)ccn1Cc1ccc(-n2ccnn2)nn1` [Example 404, 1-((6-(1H-1,2,3-triazol-1-yl)pyridazin-3-yl)methyl)-4-(bicyclo[1.1.1]pentan-1-yl)-1,4-dihydropyrazine-2,3-dione] showed an EC50 of 10 nM. With `O=C1C(=O)N(C23CC(F)(C2)C3)CCN1Cc1ccc(-n2ccnn2)nc1` [Example 236, 1-((6-(1H-1,2,3-triazol-1-yl)pyridin-3-yl)methyl)-4-(3-fluorobicyclo[1.1.1]pentan-1-yl)piperazine-2,3-dione] the EC50 was 533 nM. `O=C1C(=O)N2CCCCC2CN1Cc1nnc(-c2ccccc2)s1` (single isomer, unassigned) [Example 180, (R or S)-2-((5-phenyl-1,3,4-thiadiazol-2-yl)methyl)hexahydro-2H-pyrido[1,2-a]pyrazine-3,4-dione] showed an EC50 of 97 nM. `O=c1c(=O)n(C2CCC2)ccn1Cc1cc(-c2ccccc2)ns1` [Example 165] was tested, and the EC50 was 12 nM. `O=c1c(=O)n(C2(CF)CC2)ccn1Cc1ccc(-n2ccnn2)nn1` [Example 247, 1-((6-(1H-1,2,3-triazol-1-yl)pyridazin-3-yl)methyl)-4-(1-(fluoromethyl)cyclopropyl)-1,4-dihydropyrazine-2,3-dione] was tested, and the EC50 was 44 nM. Work on `O=c1c(=O)n(C23CC(C2)C3)ccn1Cc1ccc(-c2cccnc2)nn1` [Example 85, 1-(bicyclo[1.1.1]pentan-1-yl)-4-((6-(pyridin-3-yl)pyridazin-3-yl)methyl)-1,4-dihydropyrazine-2,3-dione] yielded an EC50 of 29 nM. `O=c1c(=O)n(C2CCC2)ccn1Cc1cc(-c2cccc(F)c2)on1` [Example 54, 1-cyclobutyl-4-((5-(3-fluorophenyl)isoxazol-3-yl)methyl)-1,4-dihydropyrazine-2,3-dione] showed an EC50 of 2 nM. With `O=C1C(=O)N(C23CC(C2)C3)CCN1Cc1cn(-c2ccccc2)nn1` [Example 439, 1-(bicyclo[1.1.1]pentan-1-yl)-4-((1-phenyl-1H-1,2,3-triazol-4-yl)methyl)piperazine-2,3-dione] the EC50 was 9 nM. `N#CC1(n2ccn(Cc3ccc(-n4ccnn4)cn3)c(=O)c2=O)CC1` [Example 387, 1-(4-((5-(1H-1,2,3-triazol-1-yl)pyridin-2-yl)methyl)-2,3-dioxo-3,4-dihydropyrazin-1(2H)-yl)cyclopropane-1-carbonitrile] was tested, and the EC50 was 677 nM. With `O=C1C(=O)N(C2CCCC2)CCN1Cc1ccc(-c2ccccc2)nn1` [Example 3, 1-cyclopentyl-4-((6-phenylpyridazin-3-yl)methyl)piperazine-2,3-dione] the EC50 was 12 nM. `O=C1C(=O)N(C23CC(F)(C2)C3)CCN1Cc1ccc(-n2cccn2)nc1` [Example 237, 1-((6-(1H-pyrazol-1-yl)pyridin-3-yl)methyl)-4-(3-fluorobicyclo[1.1.1]pentan-1-yl)piperazine-2,3-dione] gave an EC50 of 346 nM. `O=c1c(=O)n(C2(CF)CC2)ccn1Cc1ccc(-c2nccs2)nn1` [Example 233, 1-(1-(fluoromethyl)cyclopropyl)-4-((6-(thiazol-2-yl)pyridazin-3-yl)methyl)-1,4-dihydropyrazine-2,3-dione] was tested, and the EC50 was 54 nM. Compound `O=C1C(=O)N(C2CCCC2)CCN1Cc1nnc(N2CC[C@H](F)C2)s1` [Example 311, (S)-1-cyclopentyl-4-((5-(3-fluoropyrrolidin-1-yl)-1,3,4-thiadiazol-2-yl)methyl)piperazine-2,3-dione] has an EC50 of 60 nM. In the case of `CC1(n2ccn(Cc3cc(-c4cccnc4)on3)c(=O)c2=O)CC1` [Example 209, 1-(1-methylcyclopropyl)-4-((5-(pyridin-3-yl)isoxazol-3-yl)methyl)-1,4-dihydropyrazine-2,3-dione], the EC50 is reported as 26 nM. In the case of `O=c1c(=O)n(C23CC(F)(C2)C3)ccn1Cc1ccc(-n2cccn2)nc1` [Example 220, 1-((6-(1H-pyrazol-1-yl)pyridin-3-yl)methyl)-4-(3-fluorobicyclo[1.1.1]pentan-1-yl)-1,4-dihydropyrazine-2,3-dione], the EC50 is reported as 50 nM. Work on `O=c1c(=O)n(C23CC(C2)C3)ccn1Cc1ccc(-c2ccccn2)cn1` [Example 86, 1-([2,3′-bipyridin]-6′-ylmethyl)-4-(bicyclo[1.1.1]pentan-1-yl)-1,4-dihydropyrazine-2,3-dione] yielded an EC50 of 27 nM. `CC1(n2ccn(Cc3nnc(-c4cccc(F)c4)s3)c(=O)c2=O)CCC1` [Example 82, 1-((5-(3-fluorophenyl)-1,3,4-thiadiazol-2-yl)methyl)-4-(1-methylcyclobutyl)-1,4-dihydropyrazine-2,3-dione] was tested, and the EC50 was 10 nM. Compound `O=C1C(=O)N(C2CC[C@H](O)C2)CCN1Cc1nnc(-c2ccccc2)s1` (single isomer, unassigned) [Example 438, (R,S or S,R)-1-(3-hydroxycyclopentyl)-4-((5-phenyl-1,3,4-thiadiazol-2-yl)methyl)piperazine-2,3-dione] has an EC50 of 40 nM. Compound `O=C1C(=O)N([C@H]2C[C@H]3C[C@H]3C2)CCN1Cc1nnc(-c2ccccc2)s1` [Example 283, 1-((cis)-bicyclo[3.1.0]hexan-3-yl)-4-((5-phenyl-1,3,4-thiadiazol-2-yl)methyl)piperazine-2,3-dione] has an EC50 of 7 nM. For `CC(C)(C)N1CCN(Cc2ncc(-c3ccccc3)cn2)C(=O)C1=O` [Example 345, 1-(tert-butyl)-4-((5-phenylpyrimidin-2-yl)methyl)piperazine-2,3-dione], the EC50 was 59 nM. Work on `O=C1C(=O)N(C2CCCC2)CCN1Cc1cnc(-c2ccccc2F)cn1` [Example 46, 1-cyclopentyl-4-((5-(2-fluorophenyl)pyrazin-2-yl)methyl)piperazine-2,3-dione] yielded an EC50 of 13 nM. Compound `O=C1C(=O)N([C@@H]2CC[C@@H](c3ccccc3)C2)CCN1Cc1nnc(-c2ccccc2)s1` (single isomer, unassigned) [Example 440D, (R or S, R or S)-1-((5-phenyl-1,3,4-thiadiazol-2-yl)methyl)-4-(3-phenylcyclopentyl)piperazine-2,3-dione] has an EC50 of 8 nM. `O=C1C(=O)N(C23CC(C2)C3)CCN1Cc1nnc(-c2cccc(F)c2)s1` [Example 2, 1-(bicyclo[1.1.1]pentan-1-yl)-4-((5-(3-fluorophenyl)-1,3,4-thiadiazol-2-yl)methyl)piperazine-2,3-dione] gave an EC50 of 9 nM. For `O=C1C(=O)N(C2CCCC2)CCN1Cc1ccc(N2CCCCC2)nn1` [Example 316, 1-cyclopentyl-4-((6-(piperidin-1-yl)pyridazin-3-yl)methyl)piperazine-2,3-dione], the EC50 was 32 nM. In the case of `CC1CN(Cc2ncc(-c3ccccc3)cn2)C(=O)C(=O)N1C1CCCC1` (single isomer, unassigned) [Example 341, (R or S)-4-cyclopentyl-5-methyl-1-((5-phenylpyrimidin-2-yl)methyl)piperazine-2,3-dione], the EC50 is reported as 19 nM. Work on `O=C1C(=O)N(C23CC(F)(C2)C3)CCN1Cc1ccc(-n2nccn2)nc1` [Example 265, 1-((6-(2H-1,2,3-triazol-2-yl)pyridin-3-yl)methyl)-4-(3-fluorobicyclo[1.1.1]pentan-1-yl)piperazine-2,3-dione] yielded an EC50 of 114 nM. In the case of `O=c1c(=O)n([C@H]2C[C@H]3C[C@H]3C2)ccn1Cc1cc(-c2ccccn2)on1` [Example 375, 1-((cis)-bicyclo[3.1.0]hexan-3-yl)-4-((5-(pyridin-2-yl)isoxazol-3-yl)methyl)-1,4-dihydropyrazine-2,3-dione], the EC50 is reported as 6 nM. Work on `O=C1C(=O)N(C2CCCC2)CCN1Cc1ccc(-c2cn[nH]c2)nn1` [Example 15, 1-((6-(1H-pyrazol-4-yl)pyridazin-3-yl)methyl)-4-cyclopentylpiperazine-2,3-dione] yielded an EC50 of 44 nM. Work on `O=C1C(=O)N(C2CCC2)CCN1Cc1ccc(-n2nccn2)cn1` [Example 136, 1-((5-(2H-1,2,3-triazol-2-yl)pyridin-2-yl)methyl)-4-cyclobutylpiperazine-2,3-dione] yielded an EC50 of 20 nM. `CC1(N2CCN(Cc3nnc(-c4ccccc4)s3)C(=O)C2=O)CCC1` [Example 166, 1-(1-methylcyclobutyl)-4-((5-phenyl-1,3,4-thiadiazol-2-yl)methyl)piperazine-2,3-dione] gave an EC50 of 10 nM.
